Data published in ChEMBL document CHEMBL3301361, “Experimental in vitro DMPK and physicochemical data on a set of publicly disclosed compounds”.
≈ marks a conversion by molar mass, not a printed value.

Assay: physchem
Settings: pH 7.4 buffer

| solubility thermodynamic [µM] | Compound |
| --- | --- |
| 25.1 (≈ 6.74 µg/mL) | CC/C(=C(/CC)c1ccc(O)cc1)c1ccc(O)cc1 [DIETHYLSTILBESTROL] |
| 89.1 (≈ 37.5 µg/mL) | CC(C)Oc1cc(O[C@@H](C)c2ccccc2)cc(C(=O)Nc2ccc(C(=O)O)cn2)c1 |
| 1320 (≈ 698 µg/mL) | CN(C)C(=N)c1ccc(C(=O)N2CCN(S(=O)(=O)c3ccc4cc(Br)ccc4c3)CC2)cc1 |
| 132 (≈ 34.8 µg/mL) | COc1ccc(C(=O)Nc2nccs2)cc1OC |
| 8.1 (≈ 2.14 µg/mL) | COC1=C(c2ccccc2)C(=O)c2ccccc2C1=O |
| 6 (≈ 2.08 µg/mL) | O=C(c1ccc(F)cc1)C1CCN(C(=O)c2cc(F)cc(F)c2)CC1 |
| 67.6 (≈ 15.4 µg/mL) | CC1(C)C=Cc2c(O)nc3ccccc3c2O1 [FLINDERSINE] |
| 468 (≈ 117 µg/mL) | CC(c1ccccc1)n1cnc2ccccc2c1=O (stereo not drawn) |
| 4.4 (≈ 0.802 µg/mL) | c1ccc2c(c1)Cc1ccccc1O2 [XANTHENE] |
| 9.5 (≈ 3.68 µg/mL) | CN(C)CCSc1nc2ccc(Br)cc2cc1-c1ccccc1 |
| 2 (≈ 0.643 µg/mL) | Cc1onc(-c2ccccc2)c1C(=O)OCC(=O)c1ccccc1 |
| 4.4 (≈ 1.37 µg/mL) | COc1cc2ncnc(Nc3ccc(C)c(O)c3)c2cc1OC |
| 0.7 (≈ 0.297 µg/mL) | COCCNS(=O)(=O)c1ccc(Nc2nccc(-c3cnc4ccccn34)n2)cc1 |
| 646 (≈ 323 µg/mL) | COC[C@H](C)Oc1cc(O[C@@H](C)Cc2cc(F)cc(F)c2)cc(C(=O)Nc2ccc(C(=O)O)cn2)c1 |
| 550 (≈ 131 µg/mL) | O=c1c2ccccc2[nH]n1CCc1ccccc1 |
| 30.9 (≈ 7.9 µg/mL) | O=c1cc(-c2ccccc2)[nH]c2c(Cl)cccc12 |
| 11.2 (≈ 5.28 µg/mL) | CNC(=O)[C@H](Cc1ccccc1)NC(=O)[C@H](CC(C)C)[C@H](CSc1ccccc1)C(=O)NO |
| 105 (≈ 49.9 µg/mL) | C[C@@H](Cc1ccccc1)Oc1cc(OC2CCOCC2)cc(C(=O)Nc2ccc(C(=O)O)cn2)c1 |

| solubility thermodynamic [µM] | Compound |
| --- | --- |
| 9.1 (≈ 3.95 µg/mL) | CC(C)Oc1cc(O[C@@H](C)Cc2ccccc2)cc(C(=O)Nc2ccc(C(=O)O)cn2)c1 |
| 2 (≈ 0.891 µg/mL) | COc1cccc(NC(=O)Cc2ccc(Oc3ncnc4cc(OC)c(OC)cc34)cc2)c1 |
| 22.9 (≈ 5.04 µg/mL) | c1ccc(-c2nc[nH]c2-c2ccccc2)cc1 |
| 21.9 (≈ 11.1 µg/mL) | CN(C(=O)Cc1ccc(Br)cc1)C1CCN(CCC(c2ccccc2)c2ccccc2)CC1 |
| 363 (≈ 156 µg/mL) | COCCNS(=O)(=O)c1ccc(Nc2nccc(-c3cnc(C)n3C(C)C)n2)cc1 |
| 2.5 (≈ 1.28 µg/mL) | COc1cc2c(Nc3ccc(NC(=O)c4ccccc4)cc3)ncnc2cc1OCCCN1CCOCC1 |
| 7.8 (≈ 3.18 µg/mL) | CCc1cc(OCc2ccc(-c3ccccc3-c3nnn[nH]3)cc2)c2ccccc2n1 |
| 1260 (≈ 202 µg/mL) | Oc1ccc(-n2ccnc2)cc1 |
| 135 (≈ 45.4 µg/mL) | N#Cc1ccccc1C(=O)N1CCC(C(=O)c2ccc(F)cc2)CC1 |
| 35.5 (≈ 11.2 µg/mL) | N#Cc1cccnc1-c1ccc(C(=O)Nc2ccccc2N)cc1 |
| 5.2 (≈ 2.45 µg/mL) | Cc1c(-c2ccc(O)cc2)n(Cc2ccc(OCCN3CCCCCC3)cc2)c2ccc(O)cc12 [BAZEDOXIFENE] |
| 363 (≈ 171 µg/mL) | N#Cc1ccccc1COc1cc(OCCCN2CCCC2)ccc1C(=O)Nc1cccc(O)c1 |
| 1.1 (≈ 0.308 µg/mL) | O=C(Cc1ccccc1)Nc1ccc(N2CCCC2)cc1 |
| 1350 (≈ 628 µg/mL) | COC[C@H](C)Oc1cc(Oc2cccc(N(C)C)c2)cc(C(=O)Nc2ccc(C(=O)O)cn2)c1 |
| 70.8 (≈ 33.3 µg/mL) | CCN(C(=O)NCc1cccc(C)c1)C1CCN(CCC(c2ccccc2)c2ccccc2)CC1 |
| 1.2 (≈ 0.576 µg/mL) | CC(C)CC(C(=O)NCC(=O)CNS(=O)(=O)c1ccccn1)c1cccc(-c2ccccc2)c1 (stereo not drawn) |
| 28.8 (≈ 12.1 µg/mL) | CC(C)Oc1cc(OCCc2ccccc2)cc(C(=O)Nc2ccc(C(=O)O)cn2)c1 |

The remaining lines, values behind:

| Compound | solubility thermodynamic [µM] |
| --- | --- |
| CC(C)(C)c1cc(=O)n(-c2ccccc2)[nH]1 | 708 (≈ 153 µg/mL) |
| COc1cc2ncnc(Nc3cc(NC(=O)c4ccnc(N5CCOCC5)c4)ccc3C)c2cc1OCCN(C(C)C)C(C)C | 240 (≈ 147 µg/mL) |
| Cc1ccc2nc(C)c(-c3ccnc(N)n3)n2c1 | 457 (≈ 109 µg/mL) |
| c1ccc(CSc2ncnc3[nH]cnc23)cc1 | 95.5 (≈ 23.1 µg/mL) |
| CS(=O)(=O)Cc1cc(N2CCOCC2)nc(-c2cnc3[nH]ccc3c2)n1 | 47.9 (≈ 17.9 µg/mL) |
| N#CC1(NC(=O)[C@@H]2CCCC[C@H]2C(=O)N2CCc3[nH]c4c(F)cccc4c3C2)CC1 | 479 (≈ 195 µg/mL) |
| C[C@H](Oc1cccc2ncnc(Nc3ccc4c(cnn4Cc4nccs4)c3)c12)C(=O)N(C)C | 31.6 (≈ 15 µg/mL) |
| COc1cc(OC2CCOCC2)c2c(Nc3ccc(F)c(Cl)c3)ncnc2c1 | 0.1 (≈ 0.0404 µg/mL) |
| CC(C)n1c2ccccc2c2c(F)c(NC(=O)N3CCOCC3)c(F)cc21 | 4.6 (≈ 1.72 µg/mL) |
| CC(=O)N1CCC(NC(=O)c2ccc(Oc3ccc(C#C[C@]4(O)CN5CCC4CC5)cc3)cc2)CC1 | 646 (≈ 315 µg/mL) |
| COc1cccc(NC(=O)Cn2cc(Nc3ncnc4cc(OC)c(OC)cc34)cn2)c1 | 4.4 (≈ 1.91 µg/mL) |
| Cc1ncc(-c2nc(Nc3ccc(N4CCOCC4)cc3)ncc2F)n1C(C)C | 118 (≈ 46.6 µg/mL) |
| COc1cc2ncnc(Nc3cccc(Cl)c3F)c2cc1CN(C)C1(C(N)=O)CN(C(C)C)C1 | 25.7 (≈ 12.5 µg/mL) |
| CS(=O)(=O)Cc1cc(N2CCOCC2)nc(-c2ccc(NS(C)(=O)=O)cc2)n1 | 11.2 (≈ 4.78 µg/mL) |
| CS(=O)(=O)C1(c2cc(N3CCOCC3)nc(-c3cccc(N)c3)n2)CC1 | 13.2 (≈ 4.94 µg/mL) |
| CSc1nc(N)n2nc(-c3ccco3)nc2n1 | 151 (≈ 37.6 µg/mL) |
| N#CC1(NC(=O)[C@@H]2CCCC[C@H]2C(=O)N2CCc3[nH]c4c(C(F)(F)F)cccc4c3C2)CC1 | 144 (≈ 66.3 µg/mL) |

| Compound | solubility thermodynamic [µM] |
| --- | --- |
| CC(C)n1c2ccc(F)cc2c2cc(NC(=O)N3CCOCC3)ccc21 | 34.7 (≈ 12.3 µg/mL) |
| COc1cc2ncnc(Nc3cccc(Cl)c3F)c2cc1CN(C)C1(C(N)=O)CCN(C(C)C)CC1 | 550 (≈ 283 µg/mL) |
| N#CC1(NC(=O)[C@@H]2CCCC[C@H]2C(=O)N2CCc3[nH]c4cc(F)ccc4c3C2)CC1 | 537 (≈ 219 µg/mL) |
| CCOc1cc2ncc(C#N)c(Nc3ccc(F)c(Cl)c3)c2cc1NC(=O)/C=C/CN(C)C [PELITINIB] | 1.5 (≈ 0.702 µg/mL) |
| COc1ccc(Cl)c(Nc2ncnc3cc(OCCCN4CCN(C)CC4)cc(OC(C)C)c23)n1 | 347 (≈ 174 µg/mL) |
| CC(C)(C)[C@@H](C#N)NC(=O)[C@@H]1CCCC[C@H]1C(=O)N1CCc2[nH]c3ccc(F)cc3c2C1 | 74.1 (≈ 32.5 µg/mL) |
| COc1cc2c(Nc3cc(CC(=O)Nc4cc(F)cc(F)c4)[nH]n3)ncnc2cc1OCCCN1CCC(CO)CC1 | 214 (≈ 124 µg/mL) |
| COc1cc2c(Nc3cc(CC(=O)Nc4cccc(F)c4)[nH]n3)ncnc2cc1OCCCNCCO | 219 (≈ 111 µg/mL) |
| O=C(c1ccc(F)cc1)C1CCN(C(=O)N2CCOCC2)CC1 | 1150 (≈ 368 µg/mL) |
| Cc1cc(C)cc(-c2[nH]c3ccc(C(C)(C)C(=O)N4C5CCC4CC5)cc3c2CCN(C)CCCCc2ccncc2)c1 | 0.9 (≈ 0.519 µg/mL) |
| O=C(Cc1cc(Nc2ncnc3cc(OCCCN4CCC[C@@H]4CO)ccc23)[nH]n1)Nc1cccc(F)c1 | 102 (≈ 53.2 µg/mL) |
| N#CC1(NC(=O)[C@@H]2CCCC[C@H]2C(=O)N2CCc3[nH]c4ncccc4c3C2)CC1 | 1510 (≈ 593 µg/mL) |
| COc1cc2ncnc(Nc3ccc(F)c(Cl)c3)c2cc1OCCCN(C)C | 1290 (≈ 522 µg/mL) |
| CN(C(=O)Cc1ccc(-n2cnnn2)cc1)C1CCN(Cc2ccc(C(F)(F)F)nc2)CC1 | 182 (≈ 83.6 µg/mL) |
| CN(C)C(=O)Nc1ccc(Cl)c(Cl)c1 [DCMU] | 132 (≈ 30.7 µg/mL) |
| N#Cc1ccc(CN2CCN(c3ccc4nnc(C(F)(F)F)n4n3)CC2)cc1 | 11.5 (≈ 4.45 µg/mL) |
